Data taken from US5434292A, “Phenylalkanoic acid derivatives, process for producing the same and process for separating optical isomers thereof” (Hisamitsu Pharmaceutical Co., Inc., priority 1994, dated 1995).
Where two headings read alike, the source gives them in different places.

What was measured:
Assay type in all cases: in vivo, Wistar-strain male rats
[1] = system: Carrageenin-induced paw edema; test: Carrageenin-induced paw edema experiment using rats; conditions: Rattus norvegicus, 3 h; for inhibition in vivo at 0.2 mg/kg / inhibition in vivo at 0.5 mg/kg / ED50: oral; for inhibition in vivo at 0.2 mg/kg / inhibition in vivo at 0.5 mg/kg: three hours after induction, vs control; for ED50: edema inhibition three hours after induction
Protocol: Pharmacological Experiment 1 (Carrageenin-induced paw edema experiment using rats)
There were used groups each consisting of seven Wistar-strain male rats each weighing about 150 g as test animals (subjects). One hour later than said administration, 0.1 ml of 1%λ-carrageenin was hypodermically injected to the paw of right hind leg of each of the test animals to induce the reaction. Thereafter, each test animal so injected was measured for its paw volume with the lapse of time.
The experimental results were indicated in terms of edema inhibition rates and effective doses (ED50) found by comparing the edema rate of each test rat with that of each rat of the control group (to which no test compounds were orally administered) three hours after having induced the reaction.

adjuvant arthritis = test: Adjuvant arthritis experiment using rats; conditions: oral; for ED50: Rattus norvegicus, 168 h, once a day for 7 days
Protocol: Pharmacological Experiment 4 (Adjuvant arthritis experiment using rats)
0.6 mg/0.1 ml of Mycobacterium butyricum suspended in liquid paraffin were subcutaneously administered to the root of the tall of each of Wistar-strain male rats each weighing about 200 g (for the compound of Example 2 and comparative compound 1) or 240 g (for the compound of Example 24 and comparative compounds 4 and 5). […] The test compounds were orally administered once a day for 7 days to the selected rats in the predetermined doses, respectively, as indicated in the following Table 7. The inhibitory effect on the adjuvant arthritis was investigated referring, as a guide to the investigation, to the inhibition effect on swelling of the hind paws of each of the tested rats. In each of the tested rats, the inhibition rate was calculated by comparing the swelling volume ratio of the tested rat determined by the following formula with that of each rat of the control group (to which no test compounds were orally administered).
Swelling volume ratio = {(paw volume measured
26 days (*a) after the subcutaneous administration) -
(original or normal paw volume)}/{(paw volume
measured 19 days (*b) after the subcutaneous
administration) - (original or normal paw volume)} × 100
*a: 24 days later, for the compound of Example 24 and comparative
*b: 17 days later, for the compound of Example 24 and comparative

Gastric mucous membrane = Gastric mucous membrane trouble experiment using rats; conditions: oral, 3.0 mg/kg; fasted 18 hours; groups of eight rats
Protocol: (§1) Pharmacological Experiment 3 (Gastric mucous membrane trouble experiment using rats)
(§2) There were used groups each consisting of eight Wistar-strain male rats each weighing about 160 g as test animals (subjects). The test compounds were orally administered to the test animals in the predetermined doses, respectively, as indicated in the following Table 6 after their fasting for 18 hours. Thirty five hours later than said administration, the rats so administered were dissected to remove therefrom the stomachs each of which was then fixed, cut along the greater curvature thereof and visually observed to find whether ulcers were formed therein. Further, 50% gastric ulcer-inducing doses (UD50) were determined.

[2] = as above; conditions: rat, in vivo
Protocol: as §1, §2

[3] = system: threshold of pain of the paws; test: Randall-Selitto method using rats (yeast-induced inflammatory pain); conditions: oral; for ED50: Rattus norvegicus, analgesic effect; for Inhibition rate: area under the curve of pain threshold vs control
Protocol: Pharmacological Experiment 2 (Randall-Selitto method using rats as subjects)
There were used groups each consisting of seven Wistar-strain male rats each weighing about 140 g. The rats were hypodermically injected with 0.1 ml of 20% yeast suspension at the paw of their right hind leg to induce inflammatory edema, and the threshold of pain of the paws was measured with the lapse of time in accordance with the Randall-Selitto method. Three hours after the reaction had been induced, the dose of the test compounds was orally administered to each rat as shown in the following Table 5.
In Table 5, the results were expressed in terms of inhibition rates and effective amounts (ED50) for the tested groups with respect to those of the control group (to which the compound was not orally administered) after the area under the curve had been measured subsequently to the administration.

[4] = read-out: Inhibition rate (edema inhibition rate)
[5] = 1.0 mg/kg once a day for 7 days

SMILES	inhibition in vivo at 0.2 mg/kg [1, 4] [%]	inhibition in vivo at 0.5 mg/kg [1, 4] [%]	Inhibition rate ([3]; 1.0 mg/kg) [%]	further results
CC(C(=O)O)c1ccc(C[C@@H]2CCCC[C@H]2O)c(Cl)c1 (relative stereo) [Example 24, 2-[3-chloro-4-(trans-2-hydroxycyclohexane-1-ylmethyl)phenyl]propionic acid]	33.4	47.1		Inhibition rate (swelling of hind paws) (adjuvant arthritis; 0.1 mg/kg once a day for 7 days): 34.2%; Inhibition rate (swelling of hind paws) (adjuvant arthritis; 0.3 mg/kg once a day for 7 days): 49.9%; Inhibition rate (swelling of hind paws) (adjuvant arthritis; [5]): 65.9%
CC(C(=O)O)c1ccc(C[C@H]2CCCC[C@@H]2O)c(F)c1 (relative stereo) [Example 31]		54		
CC(C(=O)O)c1ccc(C[C@H]2CCCC[C@H]2O)c(F)c1 (relative stereo) [Example 32]		37.9		
CC(C(=O)O)c1ccc(C[C@@H]2CCC[C@H]2O)c(Cl)c1 (relative stereo) [Example 40, 2-[3-chloro-4-(trans-2-hydroxycyclopentane-1-ylmethyl)phenyl] propionic acid]	34.5	56.3		
CC(C(=O)O)c1ccc(C[C@H]2CCC[C@@H]2O)c(F)c1 (relative stereo) [Example 46]		60.5		
CC(C(=O)O)c1ccc(C[C@H]2CCC[C@H]2O)c(F)c1 (relative stereo) [Example 47]		45.6		
CC(C(=O)O)c1ccc(C[C@@H]2CCCC[C@H]2O)cc1 (relative stereo) [compound 5, 2[4-(trans-2-hydroxycyclohexane-1-ylmethyl)phenyl]propionic acid, reference compound]		33.7		Inhibition rate (swelling of hind paws) (adjuvant arthritis; 3.0 mg/kg once a day for 7 days): 42.7%; Inhibition rate (swelling of hind paws) (adjuvant arthritis; 10.0 mg/kg once a day for 7 days): 56.4%
CC(C(=O)O)c1ccc(C[C@@H]2CCC[C@H]2O)cc1 (relative stereo) [compound 6, 2[4-(trans-2-hydroxycyclopentane-1-ylmethyl)phenyl]propionic acid, reference compound]	22.5	38.5		
CC(C(=O)O)c1ccc(CC2CCCCC2=O)c(Cl)c1 (stereo not drawn) [Example 2, 2-[3-chloro-4-(2-oxocyclohexane-1-ylmethyl)phenyl]propionic acid]	21.8	49.5	75.1	Ulcer formation (incidence) (Gastric mucous membrane): 2/8; TD50 at 35 h ([2]; po): 5.6 mg/kg; ED50 [1]: 0.6 mg/kg; ED50 [3]: 0.3 mg/kg; Inhibition rate ([3]; 0.3 mg/kg): 54.3%; ED50 (adjuvant arthritis): 0.5 mg/kg; Inhibition rate (swelling of hind paws) (adjuvant arthritis; [5]): 62.1%
CC(C(=O)O)c1ccc(CC2CCCC2=O)c(Cl)c1 (stereo not drawn) [Example 3, 2-[3-chloro-4-(2-oxocyclopentane-1-ylmethyl)phenyl]propionic acid]	20.2	48.5	69.3	Inhibition rate ([3]; 0.3 mg/kg): 44.7%
CC(C(=O)O)c1ccc(CC2CCCC2=O)c(F)c1 (stereo not drawn) [Example 6]		52.2		Ulcer formation (incidence) (Gastric mucous membrane): 1/8
CC(C(=O)O)c1ccc(CC2CCCCC2=O)c(F)c1 (stereo not drawn) [Example 10]		50.2		
CC(C(=O)O)c1ccc(C[C@H]2CCCC[C@@H]2O)c(Cl)c1 (stereo partly drawn) [Example 28, 2-[3-chloro-4-(trans-(1R, 2S)-2-hydroxycyclohexane-1-yl-methyl)phenyl]propionic acid]	38.3	54.8	80.9	Inhibition rate ([3]; 0.3 mg/kg): 62.5%
CC(C(=O)O)c1ccc(C[C@H]2CCC[C@@H]2O)c(Cl)c1 (stereo partly drawn) [Example 44, 2-[3-chloro-4-(trans-(1R, 2S)-2-hydroxycyclopentane-1-ylmethyl)phenyl]propionic acid]	42.2	65.5		
CC(C(=O)O)c1ccc(CC2CCCC2=O)cc1 (stereo not drawn) [compound 1, Loxoprofen, reference compound]		23.9	49.7	Ulcer formation (incidence) (Gastric mucous membrane): 4/8; TD50 at 35 h ([2]; oral, fasted 18 hours, read-out: UD50 (50% gastric ulcer-inducing dose)): 4.7 mg/kg; ED50 [1]: 1.5 mg/kg; ED50 [3]: 1.5 mg/kg; ED50 (adjuvant arthritis): 8.1 mg/kg; Inhibition rate (swelling of hind paws) (adjuvant arthritis; [5]): 1.3%
CC(C(=O)O)c1ccc(CC2CCCCC2=O)cc1 (stereo not drawn) [compound 2, 2[4-(2-oxocyclohexane-1-ylmethyl)phenyl]propionic acid, reference compound]		27.1	44.3	
CC(C(=O)O)c1ccc(CC2CCCC2)c(Cl)c1 (stereo not drawn) [compound 3, 2(3-chloro-4-cyclopentylmethylphenyl)propionic acid, reference compound]		10.2	18.4	
COc1ccc2c(c1)c(CC(=O)O)c(C)n2C(=O)c1ccc(Cl)cc1 [compound 4, Indomethacin, reference compound]				inhibition in vivo at 5 mg/kg ([1]; po, read-out: Inhibition rate (edema inhibition rate)): 51.3%; Inhibition rate ([3]; 5.0 mg/kg): 76.3%; Inhibition rate (swelling of hind paws) (adjuvant arthritis; [5]): 58.7%
